Patent US20160000762A1, “IMPROVING COGNITIVE FUNCTION” (THE REGENTS OF THE UNIVERSITY OF CALIFORNIA, priority 2013, published 2016)

Key:
[1] = system: primary hippocampal neurons; experiment: Dendritic spine density in transfected primary hippocampal neurons; type: cell-based, Sprague-Dawley rats; settings: 5 μM
Method: Primary neuron culture and immunostaining. Primary hippocampal neurons from E19 Sprague-Dawley rats were cultured at 150 cells/mm^2 as previously described (Pak et al., 2001). Neurons were transfected using Lipofectamine™ 2000 (Invitrogen, Carlsbad, Calif., USA) or calcium phosphate precipitation with GFP+PLL, GFP+APP shRNA, or GFP+APP and treated with BTA-EG4. The following antibodies were used: mouse anti-GFP (Novus Biologicals, 9F9.F9), rabbit anti-GFP (Invitrogen, A11122), rabbit anti-GluR1 (Calbiochem, PC246), mouse anti-GluR2 (BD Pharmagen, 556341), mouse anti-postsynaptic density (PSD)-95 (NeuroMabs, Davis, Calif., USA), mouse anti-Synaptophysin (Sigma Aldrich, s5768), rabbit APP N-terminal (Sigma-Aldrich, A8967), anti-Ras (BD Biosciences, 610001), anti-RasGRF1 (Santa Cruz, C-20; BD Biosciences, 610149), anti-ERK1/2 (Cell Signaling, 4695), anti-p-ERK1/2 (Invitrogen, 36880), anti-CREB (Cell Signaling, D76D11), anti-p-CREB (Millipore, 06-519), and mouse anti-c-Myc (Novus Biologicals, 9E10). Cultured hippocampal neuron images were acquired by LSM 510 laser scanning confocal microscope (Zeiss). Confocal zseries image stacks encompassing entire dendrite segments were analyzed using MetaMorph software (Universal Imaging Corporation, Downington, Pa., USA).
To examine whether BTA-EG4 acts through APP to increase dendritic spine density, we acutely knocked down APP using shRNA in primary hippocampal neurons. APP shRNA was cotransfected with GFP to visualize dendritic spines, and control cultures were transfected with GFP and PLL (control vector for shRNA construct). We then treated both cultures with BTA-EG4 (5 μM) or vehicle. […] To confirm this finding in vivo, we examined the effect of BTA-EG4 on dendritic spine density in APP knockout (KO) mice. APP-KO mice were injected with BTA-EG4 (30 mg/kg) or vehicle for 2 weeks, and Golgi analysis was conducted on hippocampal CA1 neurons.
To examine whether the effect of BTA-EG4 on dendritic spine formation is Ras dependent, primary hippocampal neurons were transfected with GFP and RasGRF1 shRNA, or GFP and PLL. After 24 h, we treated with BTA-EG4 (5 μM) or control for another 24 h, and spine density was measured using immunofluorescence. […] After 24 h, we then treated neurons with BTA-EG4 (5 μM) or control for 24 h, and spine density was measured. Ras-WT alone or combined with BTA-EG4 increased dendritic spine density compared with control (FIGS. 7K, 7L).

dendritic spines = experiment: Golgi staining, dendritic spine density and morphology in 3× Tg AD mice; type: in vivo
Method: Golgi staining and morphological analysis of dendritic spines. Dendritic spine density and morphology analyses in the brain were conducted using the FD RAPID GOLGISTAIN KIT™ (FD NeuroTechnologies, Ellicott City, Md., USA). Mouse brains were dissected, immersed in Solutions A and B (2 weeks, room temperature, dark conditions), and then transferred to Solution C (24 h, 4° C.). A VT1000S Vibratome (Leica, Bannockburn, Ill., USA) was then used to slice brains 150 μm thick. Bright-field microscopy acquired dendritic images by Axioplan 2 (Zeiss, Oberkochen, Germany). Scion image software (Scion Corporation, Frederick, Md., USA) allowed measurement of spine head width, spine length, and linear density of cortical layers II/III and CA1 of the hippocampus. Images were coded and analyzed blind to experimental conditions. To measure dendritic spine density, we included spines from 0.2 to 2 μmin length, with at least 25 apical oblique (AO) and basal (BS) dendritic observations averaged from each animal (n=4-5 brains for 2-3 months old/group and 6-10 months old/group, n=3 brains for 13-16 months old/group). To measure spine morphology, we included spines up to 1.4 μm in width and 3.2 μm in length.
BTA-EG4 alters dendritic spine density in the cortex and hippocampus. […] In the present study, we investigated whether BTA-EG4 improves dendritic spine density in a mouse model of AD. For this study, we selected the 3× Tg AD mouse model due to its ability to model the progression of human AD (Oddo et al., 2003). […] To assess its effectiveness throughout disease progression, 2-3 month, 6-10 month, and 13-16 month old 3× Tg AD mice were injected with BTA-EG4 (30 mg/kg, i.p.) or vehicle (10% DMSO) daily for 2 weeks. The 2-week duration of treatment was selected because it increased dendritic spine density and improved memory in wild-type mice (Megill et al., 2013). After the treatment, we conducted Golgi staining to measure dendritic spine density (FIGS. 10A-10J, FIGS. 15A-15H and FIGS. 16A-16B).

[2] = Morris Water Maze, 3× Tg AD mice; type: in vivo; settings: for escape latency during training trials: 30 mg/kg daily, 2 weeks
Method: Morris Water Maze. To examine the effects of BTA-EG4 on learning and memory, we injected 2-3 month old, 6-10 month old, and 13-16 month old 3× Tg AD mice daily (i.p.) for 2 weeks before beginning behavioral testing as described previously (Minami et al., 2012). The control groupw as treated with vehicle solution (10% DMSO) while the experimental group was treated with BTA-EG4 (30 mg/kg) daily for 2 weeks. Animals were kept on a fixed 12 hour light-dark cycle, and behavioral experiments were conducted during the light portion of this cycle. Specifically, experiments began at 9:30 AM and concluded before 4:00 PM. Briefly, the amount of time required for animals to locate a Plexiglas platform submerged in opaque water was measured in a large circular pool. The animal was randomly placed into one of four quadrants separated by 90°, and the platform was hidden in one of these quadrants (14 in. from the wall). TOPSCAN software tracked the time required (latency, limited to 60 s) to locate the hidden platform, and animals failing to locate the platform within 60 s were gently guided to the platform. On the first trial, animals were allowed to remain on the platform for 15 s. All subsequent trials limited platform time to 10 s, and a probe trial (60 s) was administered 24 h after the final learning trial. Time spent in the quadrant where the platform was previously located and number of platform crossings were recorded during this probe trial. As a control, 12 h after the last trial, animals were required to locate a clearly visible black platform placed in a new location.

Question: Which results are given for BTA-EG4?
Answer: dendritic spine density ([1]; 24 h, GFP and PLL control vector): significantly increased; dendritic spine density ([1]; 24 h, RasGRF1 knockdown): prevented the effect; dendritic spine density ([1]; 24 h, combined with Ras-WT, vs control): increased; dendritic spine density ([1]; 24 h, in the presence of RasN17): could no longer increase; dendritic spine density ([1]; knockdown of APP (APP shRNA)): prevented the increase; dendritic spine length (dendritic spines; 13-16 months): neither the width nor length of dendritic spines changed; dendritic spine width (dendritic spines; 13-16 months): neither the width nor length of dendritic spines changed; hippocampal spine density (dendritic spines; CA1, 13-16 months, 30 mg/kg daily, 2 weeks): only a trend toward an increase; dendritic spine width (dendritic spines; cortex and hippocampus, 6-10 months, 30 mg/kg): wider; dendritic spine length (dendritic spines; cortical layers II/III and hippocampus, 6-10 months, 30 mg/kg): longer; dendritic spine density (dendritic spines; cortical neurons, 13-16 months, 30 mg/kg i.p. daily, 2 weeks): improved; overall density of dendritic spines (dendritic spines; hippocampus CA1, 2-3 months, 30 mg/kg i.p. daily, 2 weeks): significantly increased; overall density of dendritic spines (dendritic spines; hippocampus CA1, 6-10 months, 30 mg/kg i.p. daily, 2 weeks): significantly increased; overall density of dendritic spines (dendritic spines; layers II/III of the cortex, 2-3 months, 30 mg/kg i.p. daily, 2 weeks): significantly increased; overall density of dendritic spines (dendritic spines; layers II/III of the cortex, 6-10 months, 30 mg/kg i.p. daily, 2 weeks): significantly increased; swim speed ([2]; 2-3 months): without differing; escape latency during training trials ([2]; 2-3 months): significantly faster; percentage of time in the target quadrant ([2]; 2-3 months, probe trials): greater percentage; platform crossings ([2]; 2-3 months, probe trials): more platform crossings; escape latency during training trials ([2]; 6-10 months): faster; number of platform crossings ([2]; 6-10 months, probe trials): without changes; percentage of time spent in the target quadrant ([2]; 6-10 months, probe trials): significantly improved; measured Morris Water Maze parameters (escape latency, swim speed, target quadrant time, platform crossings) ([2]; 13-16 months): none of the measured parameters were significantly altered
